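Values below derive from 48-hour exposures of cells grown in 96-well plates, with endpoints linearly interpolated between the two concentrations bracketing the appropriate inhibition level. At the GI50, growth is halved.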 Activity calls are given as the source filed them. Cut-off read from the data, not from the text of the source: active = GI50 up to about 1.1 µM and inactive = higher.
How the values were obtained:
Test in all cases: growth of human tumour cells (NCI), 48 h
ACHN = tested on: ACHN
COLO 205 = tested on: COLO 205
HCC 2998 = tested on: HCC 2998
HL-60 = tested on: HL-60
HOP-62 = tested on: HOP-62
Hs-578T = tested on: Hs-578T
NCI/ADR-RES = tested on: NCI/ADR-RES
OVCAR-4 = tested on: OVCAR-4
SF-268 = tested on: SF-268
SF-295 = tested on: SF-295
SF-539 = tested on: SF-539
SK-OV-3 = tested on: SK-OV-3
SNB-75 = tested on: SNB-75
SR = tested on: SR
T47D = tested on: T47D
TK-10 = tested on: TK-10
UACC-257 = tested on: UACC-257
UO-31 = tested on: UO-31
SN12C = tested on: SN12C
SNB-19 = tested on: SNB-19

Measured: GI50

CN(/N=C\c1ccc2ccccc2c1)C1=NCCCN1
inactive: ACHN 13.3 µM | COLO 205 12.7 µM | HCC 2998 11.7 µM | HL-60 8.71 µM | HOP-62 12.1 µM | Hs-578T 10.7 µM | NCI/ADR-RES 19.5 µM | OVCAR-4 26.5 µM | SF-268 13.8 µM | SF-295 11.9 µM | SF-539 19.8 µM | SK-OV-3 19.1 µM | SNB-75 13.3 µM | SR 13.1 µM | T47D 22.6 µM | TK-10 14 µM | UACC-257 10.4 µM | UO-31 9.93 µM

O=C(O)CN1CCN(CC(=O)N2CCN(C(=O)OCc3ccccc3)CC2)CCN(CC(=O)O)CCN(CC(=O)N2CCN(C(=O)OCc3ccccc3)CC2)CC1
inactive: ACHN > 100 µM | COLO 205 > 100 µM | HCC 2998 > 100 µM | HL-60 > 100 µM | HOP-62 > 100 µM | Hs-578T > 100 µM | NCI/ADR-RES > 100 µM | OVCAR-4 > 100 µM | SF-295 > 100 µM | SF-539 > 100 µM | SK-OV-3 > 100 µM | SN12C > 100 µM | SNB-19 > 100 µM | SNB-75 > 100 µM | SR > 100 µM | T47D > 100 µM | TK-10 > 100 µM | UACC-257 > 100 µM | UO-31 > 100 µM

Cc1ccc([S+]([O-])CC(CF)OCn2cc(C)c(=O)[nH]c2=O)cc1 (centres undefined)
inactive: ACHN > 100 µM | COLO 205 > 100 µM | HCC 2998 > 100 µM | HL-60 > 100 µM | HOP-62 > 100 µM | Hs-578T > 100 µM | NCI/ADR-RES > 100 µM | OVCAR-4 > 100 µM | SF-268 > 100 µM | SF-295 > 100 µM | SF-539 > 100 µM | SK-OV-3 > 100 µM | SN12C > 100 µM | SNB-19 > 100 µM | SNB-75 > 100 µM | SR > 100 µM | T47D > 100 µM | TK-10 > 100 µM | UO-31 > 100 µM

Cc1cccc(-n2c(C)nc3ccc(NC(=S)Nc4ccccc4)cc3c2=O)c1
inactive: ACHN 53.5 µM | COLO 205 30.6 µM | HCC 2998 25 µM | HL-60 37.4 µM | HOP-62 > 100 µM | Hs-578T > 100 µM | NCI/ADR-RES 84.1 µM | OVCAR-4 60.8 µM | SF-268 66.5 µM | SF-295 > 100 µM | SN12C > 100 µM | SNB-19 > 100 µM | SNB-75 > 100 µM | SR > 100 µM | T47D 38 µM | TK-10 > 100 µM | UACC-257 47.6 µM | UO-31 47.4 µM

COc1ccc(-n2c(C)nc3ccc(NC(=S)Nc4ccccc4)cc3c2=O)cc1
inactive: ACHN 65.9 µM | COLO 205 64.1 µM | HCC 2998 26.2 µM | HL-60 53.3 µM | HOP-62 > 100 µM | Hs-578T > 100 µM | NCI/ADR-RES > 100 µM | OVCAR-4 86.1 µM | SF-268 > 100 µM | SF-295 > 100 µM | SN12C > 100 µM | SNB-19 > 100 µM | SNB-75 > 100 µM | SR 60.7 µM | T47D 44.6 µM | TK-10 > 100 µM | UACC-257 51.8 µM | UO-31 > 100 µM

CN1CC=C(C#CC(C)(C)O)CC1
inactive: ACHN > 37.5 µM | COLO 205 > 37.5 µM | HCC 2998 > 37.5 µM | HL-60 > 37.5 µM | HOP-62 > 37.5 µM | Hs-578T > 37.5 µM | NCI/ADR-RES > 37.5 µM | OVCAR-4 > 37.5 µM | SF-268 > 37.5 µM | SF-295 > 37.5 µM | SK-OV-3 > 37.5 µM | SN12C > 37.5 µM | SNB-19 > 37.5 µM | SNB-75 > 37.5 µM | SR > 37.5 µM | T47D > 37.5 µM | TK-10 > 37.5 µM | UACC-257 > 37.5 µM | UO-31 > 37.5 µM

CN(C)N1C(=C(C#N)C#N)C(c2ccccc2)CC1C#N (centres undefined)
inactive: ACHN > 100 µM | COLO 205 > 100 µM | HCC 2998 > 100 µM | HL-60 > 100 µM | HOP-62 > 100 µM | Hs-578T > 100 µM | NCI/ADR-RES > 100 µM | SF-268 > 100 µM | SF-295 > 100 µM | SF-539 > 100 µM | SK-OV-3 > 100 µM | SN12C > 100 µM | SNB-19 > 100 µM | SNB-75 57.8 µM | SR > 10 µM | T47D > 100 µM | TK-10 > 100 µM | UACC-257 > 100 µM | UO-31 > 100 µM

C=C1CCC2CC1C(C(=O)c1c[nH]c3ccccc13)=NC2(C)C (centres undefined)
inactive: ACHN > 100 µM | COLO 205 > 100 µM | HCC 2998 > 100 µM | HL-60 > 100 µM | HOP-62 > 100 µM | Hs-578T > 100 µM | NCI/ADR-RES > 100 µM | OVCAR-4 > 100 µM | SF-268 > 100 µM | SF-539 > 100 µM | SK-OV-3 > 100 µM | SN12C > 100 µM | SNB-19 > 100 µM | SNB-75 > 100 µM | SR > 100 µM | T47D 48.2 µM | UACC-257 > 100 µM | UO-31 > 100 µM

COc1cc(COC(=O)N(CC(=O)O)c2ccccc2)c([N+](=O)[O-])cc1OC
inactive: ACHN > 100 µM | COLO 205 > 100 µM | HCC 2998 > 100 µM | HL-60 > 100 µM | HOP-62 > 100 µM | Hs-578T > 100 µM | NCI/ADR-RES > 100 µM | SF-268 > 100 µM | SF-295 > 100 µM | SF-539 > 100 µM | SK-OV-3 > 100 µM | SN12C > 100 µM | SNB-19 > 100 µM | SNB-75 > 100 µM | SR > 100 µM | T47D > 100 µM | TK-10 > 100 µM | UACC-257 > 100 µM | UO-31 > 100 µM

CCC1OC(=O)CC(O)C(C)C(OC2OC(C)CC(N(C)C)C2O)C(CC=O)CC(C)C(=O)/C=C/C2(C)OC2C1C (centres undefined)
inactive: ACHN 19.6 µM | COLO 205 16.9 µM | HCC 2998 > 100 µM | HL-60 12.8 µM | HOP-62 25.2 µM | Hs-578T 32.4 µM | NCI/ADR-RES 31.2 µM | SF-268 27.2 µM | SF-295 29 µM | SF-539 6.62 µM | SK-OV-3 27.2 µM | SN12C 18 µM | SNB-19 16.9 µM | SNB-75 19.3 µM | SR 13.9 µM | T47D 19.9 µM | UACC-257 > 100 µM | UO-31 23.3 µM

CCOC(=O)CSc1nnc2cc(CN3CCCC3)c(-c3ccc(Cl)cc3)nn12
inactive: ACHN > 100 µM | COLO 205 > 100 µM | HL-60 89.3 µM | HOP-62 > 100 µM | Hs-578T > 100 µM | NCI/ADR-RES > 100 µM | OVCAR-4 33.6 µM | SF-268 > 100 µM | SF-295 > 100 µM | SF-539 60.1 µM | SK-OV-3 > 100 µM | SN12C > 100 µM | SNB-19 > 100 µM | SNB-75 85.5 µM | SR 41 µM | T47D 57.5 µM | TK-10 > 100 µM | UACC-257 91.4 µM | UO-31 > 100 µM

— ChEMBL document CHEMBL1201862, “PubChem BioAssay data set” (2004)
